Reference: article PMC7236970 (Clinical Epigenetics, 2020)
Each block holds one molecule with its values, some of them ahead of it.

Experiments:
Acetyl α-tubulin = assay: Western blot of α-tubulin acetylation in K-562 cells; type: cell-based, human; conditions: for effect on α-tubulin acetylation (in words): increasing concentrations
Experimental: (§1) Cells were lyzed in 10% (v/v) Mammalian Protein Extraction Reagent solution (MPER®; Thermofisher, Erembodegen, Belgium) supplemented with 1× protease inhibitor cocktail (Complete EDTA-free, Roche) according to the manufacturer’s instructions. Histone enrichment was performed in acidic conditions as previously described. The protein concentration was determined using the Bradford assay (BioRad).

K-562 cells [1] = assay: Cell proliferation and viability, Trypan Blue exclusion; type: cell-based, human; conditions: for concentration from which cell death was triggered / cell viability decreased / concentration from which cell proliferation was reduced: K-562, 48 h
Experimental: (§4) Cell viability and proliferation were evaluated using the Trypan Blue exclusion method (BioWhittaker ®). Cells were processed using a semi-automated image-based cell analyzer (Cedex XS Innovatis, Roche, Luxembourg, Luxembourg), which provided the cell number as well as cell viability based on the fraction of trypan blue-positive cells.

Acetyl histone H4 = assay: Western blot of histone H4 acetylation in K-562 cells; type: cell-based, human; conditions: for effect on histone H4 acetylation (in words): increasing concentrations
Experimental: as §1

total HDAC = assay: In vitro HDAC activity assay, total HDAC; type: biochemical; conditions: for IC50: read-out: IC50 values against total HDAC activity; for total HDAC activity remaining: 2 μM SAHA or 0.1 μM MAKV-8
Experimental: (§2) In vitro HDAC activities were measured as previously described. IC50 values against the various HDAC activities were determined using nonlinear regression in Prism 8.0 software (GraphPad Software, Inc., La Jolla, CA, USA).

RPMI-1788 cells = assay: Healthy cell model viability, nuclear morphology; type: cell-based, human; conditions: RPMI-1788, 48 h, 10 μM MAKV-8
Description: PBMCs were isolated from the blood of healthy adult human donors obtained from the Red Cross (Luxembourg, Luxembourg) and purified as previously reported [43]. […] Platelets from healthy adult human donors were provided by the Red Cross.

KBM-5 cells [2] = assay: Cell proliferation and viability, Trypan Blue exclusion; type: cell-based, human
Experimental: as §4

MEG-01 cells [3] = assay: as above; type: cell-based, human
Experimental: as §4

recombinant HDAC1 = recombinant HDAC1 (Homo sapiens, UniProt Q13547); assay: In vitro HDAC activity assay, recombinant HDAC1; type: biochemical; conditions: read-out: IC50 recombinant HDAC1 deacetylase activity
Experimental: as §2

[4] = system: K-562 cells xenografted in zebrafish; assay: Zebrafish cancer cell xenograft; type: in vivo; conditions: K-562 cells treated 24 h, injected into zebrafish yolk sac, three days post-injection
Experimental: Cancer xenograft assays in zebrafish were performed as previously described using cells stained with 2 μM CM-Dil (Invitrogen) and diluted in 1× PBS supplemented with 1% phenol red sodium salt solution.

HDAC6 = system: HDAC6; set-up: method as in PMID 18642892; conditions: in vitro; read-out: IC50 towards HDAC6; cited from earlier work
platelets = assay: Platelet viability, flow cytometry after Annexin V staining; type: cell-based, human; conditions: 48 h
Experimental: Phosphatidylserine exposure was evaluated using the FITC Annexin V Apoptosis Detection Kit I (BD Biosciences) according to the supplier’s instructions. Stained samples were processed through a cytometer (FACS Calibur, BD Biosciences), and data were recorded statistically (10,000 events/sample) using the CellQuest Pro software (BD, Biosciences). Data were analyzed using the Flow-Jo 8.8.5 software.

K-562 cells [5] = assay: Cellular ALDH activity (ALDEFLUOR), ALDH+ LSC fraction; type: cell-based, human; conditions: K-562, 24 h; for ALDH+ cell percentage: untreated cells 50%
Experimental: Cellular ALDH activity was assessed using the ALDEFLUOR^TM kit (StemCell Technologies Inc.) according to the manufacturer’s procedure. Diethylaminobenzaldehyde, a specific inhibitor of ALDH activity, was used to differentiate cells with low or high ALDH activity.

K-562 cells [6] = assay: Colony formation assay in methylcellulose; type: cell-based, human; conditions: K-562, 10 days
Experimental: (§3) For colony formation assays, 1000 cells were grown in 1 mL of semi-solid methylcellulose medium (Methocult H4230, StemCell Technologies Inc., Grenoble, France) supplemented with 10% heat-inactivated FCS (BioWhittaker ®) in 12-well plates. Colonies were detected after 10 days of culturing by adding 5 mg/mL 3-(4,5-dimethylthiazol-2-yl)-2,5-diphenyltetrazoliumbromide (MTT) reagent (Sigma-Aldrich) and incubating for 15 min at 37 °C. Pictures were taken with the GelDoc XR+ System (BioRad, Temse, Belgium), and quantifications were conducted using Image J software (US National Institute of Health, Bethesda, MD, USA).

KBM-5 cells [7] = assay: Colony formation assay in methylcellulose; type: cell-based, human; conditions: KBM-5, 10 days
Experimental: as §3

MEG-01 cells [8] = assay: Colony formation assay in methylcellulose; type: cell-based, human; conditions: MEG-01, 10 days
Experimental: as §3

HDAC3 = system: HDAC3; set-up: method as in PMID 18642892; conditions: in vitro; read-out: IC50 towards HDAC3; cited from earlier work
K-562 cells [9] = assay: Cyto-ID quantification of autophagic vesicles; type: cell-based, human; conditions: K-562, 8 h, Cyto-ID staining
Experimental: For fluorescence microscopy, the Cyto-ID® Autophagy Detection Kit (Enzo Life Science) was used according to the manufacturer’s instructions. […] Green fluorescent autophagy-related organelles (pre-autophagosomes, autophagosomes, and autophagolysosomes) were quantified as green signal area per cell nucleus as advised by the manufacturer. Segmentation of these areas was based on 31 parameters assessing color, texture, and edge and was carried out in Ilastik, version 1.3.0 developed by the European Molecular Biology Laboratory, Heidelberg. Classifiers trained for these parameters on a set of representative images were then applied to batch process multiple images as described in Ilastik’s user manual. Binary masks thus obtained were measured in FIJI [59] after applying a size filter to remove small size artifacts resulting from segmentation.

recombinant HDAC6 = biological target: T1, recombinant HDAC6 (Homo sapiens, UniProt Q9UBN7); assay: In vitro HDAC activity assay, recombinant HDAC6; type: biochemical; conditions: read-out: IC50 recombinant HDAC6 deacetylase activity
T1 sequence (Q9UBN7 1-1215): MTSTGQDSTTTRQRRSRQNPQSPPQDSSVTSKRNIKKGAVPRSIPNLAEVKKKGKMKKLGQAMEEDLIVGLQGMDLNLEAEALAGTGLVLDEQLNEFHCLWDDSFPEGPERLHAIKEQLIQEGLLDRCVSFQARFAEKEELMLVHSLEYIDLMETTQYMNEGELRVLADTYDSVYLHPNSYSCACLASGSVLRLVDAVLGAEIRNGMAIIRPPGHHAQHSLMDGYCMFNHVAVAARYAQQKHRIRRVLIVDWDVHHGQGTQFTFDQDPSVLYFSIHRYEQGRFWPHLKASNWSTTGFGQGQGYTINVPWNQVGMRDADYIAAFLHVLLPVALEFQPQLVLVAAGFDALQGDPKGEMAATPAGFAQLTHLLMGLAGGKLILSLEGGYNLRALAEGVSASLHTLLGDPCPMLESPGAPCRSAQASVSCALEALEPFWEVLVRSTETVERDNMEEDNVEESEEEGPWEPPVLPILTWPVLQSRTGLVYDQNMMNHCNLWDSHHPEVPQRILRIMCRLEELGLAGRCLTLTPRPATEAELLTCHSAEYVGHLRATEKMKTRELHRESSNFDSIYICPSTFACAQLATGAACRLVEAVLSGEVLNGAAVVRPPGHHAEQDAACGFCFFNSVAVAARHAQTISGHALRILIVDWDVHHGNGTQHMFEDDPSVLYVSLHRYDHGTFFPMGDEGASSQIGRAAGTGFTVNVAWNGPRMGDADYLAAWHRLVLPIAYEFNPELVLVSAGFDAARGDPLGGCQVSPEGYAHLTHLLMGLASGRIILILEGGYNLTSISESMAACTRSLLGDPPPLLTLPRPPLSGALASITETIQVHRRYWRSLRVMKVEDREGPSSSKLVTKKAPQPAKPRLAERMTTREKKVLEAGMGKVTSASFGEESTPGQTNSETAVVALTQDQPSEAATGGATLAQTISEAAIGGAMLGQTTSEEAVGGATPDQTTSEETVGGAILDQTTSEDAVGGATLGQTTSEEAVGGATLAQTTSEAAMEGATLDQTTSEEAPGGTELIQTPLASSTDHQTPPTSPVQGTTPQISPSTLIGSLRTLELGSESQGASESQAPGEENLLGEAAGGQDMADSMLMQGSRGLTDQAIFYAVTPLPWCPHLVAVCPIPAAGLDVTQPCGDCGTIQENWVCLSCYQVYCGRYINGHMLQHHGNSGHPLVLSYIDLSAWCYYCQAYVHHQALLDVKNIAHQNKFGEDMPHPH
Experimental: as §2

PBMCs [10] = assay: Healthy cell viability, Trypan Blue exclusion; conditions: 48 h
Experimental: (§5) PBMCs were isolated from the blood of healthy adult human donors obtained from the Red Cross (Luxembourg, Luxembourg) and purified as previously reported [43].
as §4

PBMCs [11] = system: PBMCs
Experimental: as §5, §4

Chain of recombinant HDAC1 (Q13547 whole entry): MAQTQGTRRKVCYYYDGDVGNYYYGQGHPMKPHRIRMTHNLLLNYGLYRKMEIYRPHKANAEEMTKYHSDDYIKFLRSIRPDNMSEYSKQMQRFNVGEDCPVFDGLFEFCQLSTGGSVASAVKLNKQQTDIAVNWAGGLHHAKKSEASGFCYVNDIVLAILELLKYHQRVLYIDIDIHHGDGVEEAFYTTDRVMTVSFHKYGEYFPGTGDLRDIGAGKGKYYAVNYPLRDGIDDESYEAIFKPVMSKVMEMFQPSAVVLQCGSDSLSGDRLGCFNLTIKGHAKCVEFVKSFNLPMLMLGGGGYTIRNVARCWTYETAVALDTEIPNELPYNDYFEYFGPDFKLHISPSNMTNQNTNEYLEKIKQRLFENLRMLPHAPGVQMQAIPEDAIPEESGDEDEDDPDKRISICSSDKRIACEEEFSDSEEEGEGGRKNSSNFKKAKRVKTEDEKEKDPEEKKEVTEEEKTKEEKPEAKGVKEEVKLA

- IC50 values against total HDAC activities (in words) (total HDAC; in vitro): low micromolar range
- IC50 (total HDAC; in vitro): 1050 ± 220 nM
SMILES: CC(C)(C)OC(=O)Nc1cccc(-c2cc(C(=O)NO)no2)c1 [MAKV-6]
- effect on α-tubulin acetylation (in words) (Acetyl α-tubulin; 24 h): failed to increase α-tubulin acetylation
- concentration from which cell death was triggered / cell viability decreased (K-562 cells [1]): ≥ 25 µM
- concentration from which cell proliferation was reduced (K-562 cells [1]): ≥ 5 µM
- effect on histone H4 acetylation (in words) (Acetyl histone H4; 24 h): increased histone H4 acetylation only at the highest concentrations

- IC50 values against total HDAC activities (in words) (total HDAC; in vitro): low micromolar range
- IC50 (total HDAC; in vitro): 22000 nM
SMILES: CC(C)(C)OC(=O)Nc1ccc(-c2cc(C(=O)NO)no2)cc1 [MAKV-7]
- effect on α-tubulin acetylation (in words) (Acetyl α-tubulin; 24 h): failed to increase α-tubulin acetylation
- concentration from which cell death was triggered / cell viability decreased (K-562 cells [1]): ≥ 25 µM
- concentration from which cell proliferation was reduced (K-562 cells [1]): ≥ 10 µM
- effect on histone H4 acetylation (in words) (Acetyl histone H4; 24 h): increased histone H4 acetylation only at the highest concentrations

- EC50 (Acetyl α-tubulin; Homo sapiens, K562, 24 h, western blot quantification, read-out: EC50 half-maximal acetylation of α-tubulin): 12100 ± 900 nM
- IC50 (recombinant HDAC1): 2.6 nM
- EC50 (Acetyl histone H4; Homo sapiens, K562, 24 h, western blot quantification, read-out: EC50 half-maximal acetylation of histone H4): 5900 ± 1400 nM
- IC50 (recombinant HDAC6): 11.4 nM
- IC50 (total HDAC; in vitro): 5.8 ± 3.8 nM
SMILES: CC(C)(C)OC(=O)Nc1cccc(-c2cc(C(=O)NCCCCCCC(=O)NO)no2)c1 [MAKV-8]
- time at which increase in α-tubulin acetylation begins (Acetyl α-tubulin; 15 µM MAKV-8): ≥ 2 h
- concentration from which α-tubulin acetylation was induced (Acetyl α-tubulin; 24 h): ≥ 5 µM
- concentration from which cell death was triggered / cell viability decreased (K-562 cells [1]): ≥ 10 µM
- concentration from which cell growth was inhibited (K-562 cells [1]; K-562, up to 72 h): about 3 μM
- reduction of living cells (RPMI-1788 cells): about 55%
- concentration from which cell death was triggered (KBM-5 cells [2]; KBM-5, 48 h): ≥ 10 µM
- concentration from which cell growth was inhibited (KBM-5 cells [2]; KBM-5, up to 72 h): about 3 μM
- concentration from which cell death was triggered (MEG-01 cells [3]; MEG-01, 48 h): ≥ 10 µM
- concentration from which cell growth was inhibited (MEG-01 cells [3]; MEG-01, up to 72 h): about 3 μM
- tumor formation / tumor volume (in words) [4]: unable to significantly reduce tumor volumes
- time at which increase in histone H4 acetylation begins (Acetyl histone H4; 15 µM MAKV-8): ≥ 2 h
- concentration from which histone H4 acetylation was induced (Acetyl histone H4; 24 h): ≥ 1 µM
- IC50 (HDAC6): 0.002 nM
- cytotoxicity in platelets (in words) (platelets): neither alone nor in co-treatments elicited any significant cytotoxicity in platelets
- ALDH+ cell percentage (K-562 cells [5]): 24%
- concentration from which colony formation (replicative ability, 3D model) was strongly reduced (K-562 cells [6]): ≥ 5 µM
- concentration from which colony formation (replicative ability, 3D model) was strongly reduced (KBM-5 cells [7]): ≥ 10 µM
- concentration from which colony formation (replicative ability, 3D model) was strongly reduced (MEG-01 cells [8]): ≥ 5 µM
- IC50 (HDAC3): 0.002 nM
- autophagic signal area per nucleus compared to controls (K-562 cells [9]): about 1.5 times
- total HDAC activity remaining (total HDAC): about 10%
- potency as pan-HDACi relative to SAHA (total HDAC; in vitro): 10 times
- maximum decrease of viable cells (PBMCs [10]): ≤ 30%

- IC50 (total HDAC; in vitro): > 100000 nM
SMILES: COC(=O)CCCCCCNC(=O)c1cc(-c2cccc(NC(=O)OC(C)(C)C)c2)on1 [MAKV-10]
- effect on α-tubulin acetylation (in words) (Acetyl α-tubulin; 24 h): did not augment protein target acetylation levels
- effect on cell proliferation and viability (in words) (K-562 cells [1]; K-562, up to 72 h): neither MAKV-10 nor MAKV-12 impacted K-562 cell proliferation and viability
- effect on histone H4 acetylation (in words) (Acetyl histone H4; 24 h): did not augment protein target acetylation levels
- concentration up to which HDAC activities were not inhibited (total HDAC; in vitro): > 100 µM

- IC50 (total HDAC; in vitro): > 100000 nM
SMILES: COC(=O)CCCCCCNC(=O)c1cc(-c2cccc(N)c2)on1 [MAKV-12]
- effect on α-tubulin acetylation (in words) (Acetyl α-tubulin; 24 h): did not augment protein target acetylation levels
- effect on cell proliferation and viability (in words) (K-562 cells [1]; K-562, up to 72 h): neither MAKV-10 nor MAKV-12 impacted K-562 cell proliferation and viability
- effect on histone H4 acetylation (in words) (Acetyl histone H4; 24 h): did not augment protein target acetylation levels
- concentration up to which HDAC activities were not inhibited (total HDAC; in vitro): > 100 µM

SMILES: O=C(CCCCCCC(=O)Nc1ccccc1)NO [SAHA, suberoylanilide hydroxamic acid, reference compound]
- effect on ALDH+ cell proportion (in words) (K-562 cells [5]): failed to reduce the ALDH^+ cell proportion
- total HDAC activity remaining (total HDAC): about 10%

SMILES: Cc1ccc(NC(=O)c2ccc(CN3CCN(C)CC3)cc2)cc1Nc1nccc(-c2cccnc2)n1 [imatinib]
- ALDH+ cell percentage (K-562 cells [5]): 30%
- cell mortality (in words) (PBMCs [11]): failed to trigger any cell mortality
